# Key:
# Type in all cases: cell-based
# HL-60 cells [1] = assay: Proliferation, [3H]-thymidine uptake, HL-60; conditions: 72 h, relative to control
# Description: (§1) Acute myeloid leukemia cell line HL-60 and multiple myeloma cell lines AMO-1 and KMS-12-PE were obtained from the German Collection of Microorganisms and Cell Cultures (DSMZ), Braunschweig, Germany, and non-tumorigenic stromal cell line HS-5 was acquired from the American Type Culture Collection (ATCC, Manassas, VA, USA). All cell lines were cultured in RPMI 1640 medium without phenol red (Pan Biotech, Aidenbach, Germany), supplemented with 2 mM glutamine, 100 U/mL penicillin, 100 µg/mL streptomycin (Sigma-Aldrich, St. Louis, MO, USA), and 10% fetal bovine serum (FBS Maximus, Catus Biotech GmbH, Tutzing, Germany) at 37 °C in a humidified atmosphere of 5% CO2/95% air. Cells were fed twice weekly. Logarithmically growing cells were resuspended at 1 × 10^5 cells/mL, plated in triplicate in round-bottom 96-well plates (100 µL per well; Falcon, Becton Dickinson, Franklin Lakes, NJ, USA), and incubated at 37 °C in 5% CO2/95% air for 2 h. Subsequently, the compounds were adjusted in the cell culture medium to reach the final concentrations in a total volume of 150 µL and incubated for an additional 72 h. Cell proliferation was assessed by [^3H]-thymidine uptake. Each well was exposed to 2 µCi [^3H]-thymidine (Hartmann Analytic, Braunschweig, Germany) during the final 12–16 h of incubation. Cells were harvested using a semi-automated device, and [^3H]-thymidine incorporation (expressed in counts per minute, cpm) was measured with a scintillation counter (MicroBeta TriLux, PerkinElmer, Waltham, MA, USA). Metabolic activity was assessed by resazurin staining. Resazurin (Carl Roth, Karlsruhe, Germany) was dissolved in distilled water at a concentration of 0.1 mg/mL, and 15 µL of this solution was added to each well, followed by a 2 h incubation at 37 °C. Relative fluorescence units (RFUs) were measured using a Synergy H1 plate reader equipped with a 560 nm excitation/590 nm emission filter set (BioTek; Agilent, Santa Clara, CA, USA). Proliferation and metabolic activity in the absence of compounds were defined as 100% (control), and the values for compound-treated samples were expressed as percentages relative to the control. Selectivity indices were calculated by dividing the IC50 value of each compound against HS-5 cells through the IC50 values against the investigated cell lines.
# (§2) The Wilcoxon Rank Sum Test was used to analyze proliferation and metabolic activity in the absence and presence of varying compound concentrations (NCSS 2007 software, version 07.1.2, Kaysville, UT, USA). A p-value < 0.05 was considered statistically significant. IC50 values were calculated using GraphPad Prism 10.1.2. This software reports 95% confidence intervals instead of standard errors. […] Nonetheless, the figures clearly illustrate the IC50 values due to the narrow concentration range tested.
# AMO-1 cells [2] = assay: Proliferation, [3H]-thymidine uptake, AMO-1; conditions: 72 h, relative to control
# Description: as §1, §2
# KMS-12-PE cells [3] = assay: Metabolic activity, resazurin staining, KMS-12-PE; conditions: KMS-12 PE; for Metabolic activity, mean percentage ± SE: 72 h, relative to control
# Description: as §1, §2
# (§3) Proliferation inhibition often leads to cell death. Therefore, the cytotoxic activity of the compounds was further evaluated using a modified 3-(4,5-dimethylthiazol-2-yl)-2,5-diphenyltetrazolium bromide (MTT) assay, the resazurin (Alamar Blue) assay. Metabolically active cells reduce the non-fluorescent dye resazurin to the fluorescent dye resorufin via mitochondrial reductase activity, which correlates with cell viability. In the first step the metabolic activity of the four isolated flavonoids was investigated, showing a dose-dependent reduction, but to a much lower extent than in the proliferation assays (Table A2). In fact, only 7,3′,4′-trimethoxymyricetin (2) inhibited the metabolic activity of all four cell lines by more than 50% at a concentration of 100 µM.
# HL-60 cells [4] = assay: Metabolic activity, resazurin staining, HL-60; conditions: for Metabolic activity, mean percentage ± SE: 72 h, relative to control
# Description: as §1, §2, §3
# KMS-12-PE cells [5] = assay: Proliferation, [3H]-thymidine uptake, KMS-12-PE; conditions: KMS-12 PE, 72 h, relative to control
# Description: as §1, §2
# AMO-1 cells [6] = assay: Metabolic activity, resazurin staining, AMO-1; conditions: for Metabolic activity, mean percentage ± SE: 72 h, relative to control
# Description: as §1, §2, §3
# MOLM-13 cells [7] = assay: Metabolic activity, resazurin staining, MOLM-13; conditions: for Metabolic activity, mean percentage ± SE: 72 h, relative to control
# Description: [The source words this procedure for another cell line and reports this cell line under the same test.] as §1, §2, §3
# MOLM-13 cells [8] = assay: Proliferation, [3H]-thymidine uptake, MOLM-13; conditions: 72 h, relative to control
# Description: [The source words this procedure for another cell line and reports this cell line under the same test.] as §1, §2
SMILES,"mean percentage of proliferation ± SE (HL-60 cells [1]; HL-60, 50 µM)","mean percentage of proliferation ± SE (HL-60 cells [1]; HL-60, 100 µM)","mean percentage of proliferation ± SE (AMO-1 cells [2]; AMO-1, 50 µM)","mean percentage of proliferation ± SE (AMO-1 cells [2]; AMO-1, 100 µM)","Metabolic activity, mean percentage ± SE (KMS-12-PE cells [3]; 50 µM)","Metabolic activity, mean percentage ± SE (KMS-12-PE cells [3]; 100 µM)","Metabolic activity, mean percentage ± SE (HL-60 cells [4]; HL-60, 50 µM)","Metabolic activity, mean percentage ± SE (HL-60 cells [4]; HL-60, 100 µM)",mean percentage of proliferation ± SE (KMS-12-PE cells [5]; 50 µM),mean percentage of proliferation ± SE (KMS-12-PE cells [5]; 100 µM),"Metabolic activity, mean percentage ± SE (AMO-1 cells [6]; AMO-1, 50 µM)","Metabolic activity, mean percentage ± SE (AMO-1 cells [6]; AMO-1, 100 µM)","Metabolic activity, mean percentage ± SE (MOLM-13 cells [7]; MOLM-13, 50 µM)","Metabolic activity, mean percentage ± SE (MOLM-13 cells [7]; MOLM-13, 100 µM)","mean percentage of proliferation ± SE (MOLM-13 cells [8]; MOLM-13, 50 µM)","mean percentage of proliferation ± SE (MOLM-13 cells [8]; MOLM-13, 100 µM)",other results
"COc1cc(O)c2c(=O)c(OC)c(-c3ccc(OC)c(OC)c3)oc2c1 [Compound 1, retusin]",76.0 ± 3.0 %,65.6 ± 3.1 %,73.5 ± 7.5 %,66.9 ± 7.8 %,100.9 ± 4.1%,95.1 ± 4.5%,93.0 ± 4.4%,85.9 ± 1.8%,85.2 ± 1.8 %,73.0 ± 1.9 %,91.4 ± 8.9 %,81.0 ± 4.2 %,88.5 ± 3.8 %,80.5 ± 2.6 %,76.9 ± 4.7 %,57.8 ± 6.8 %,–
"COc1cc(O)c2c(=O)c(O)c(-c3cc(O)c(OC)c(OC)c3)oc2c1 [Compound 2, 7,3′,4′-trimetoxymyricetin]",36.7 ± 2.5 %,2.5 ± 0.5 %,27.0 ± 4.0 %,4.8 ± 1.0 %,62.7 ± 2.6 %,44.5 ± 4.0 %,79.6 ± 7.0 %,32.1 ± 2.8 %,16.1 ± 0.9 %,2.6 ± 0.4 %,68.9 ± 4.1 %,41.8 ± 6.4 %,65.4 ± 3.6 %,48.9 ± 5.5 %,35.4 ± 4.2 %,3.8 ± 1.0 %,"mean percentage of proliferation ± SE (HL-60 cells [1]; HL-60, 25 µM): 69.8 ± 2.5 %; mean percentage of proliferation ± SE (AMO-1 cells [2]; AMO-1, 25 µM): 69.2 ± 5.3 %; inhibition at 100 µM (KMS-12-PE cells [3]; Homo sapiens, 100 µM): > 50%; Metabolic activity, mean percentage ± SE (KMS-12-PE cells [3]; 25 µM): 87.9 ± 2.6 %; Metabolic activity, mean percentage ± SE (HL-60 cells [4]; HL-60, 25 µM): 93.2 ± 7.8%; inhibition at 100 µM (HL-60 cells [4]; Homo sapiens, HL-60, 100 µM): > 50%; mean percentage of proliferation ± SE (KMS-12-PE cells [5]; 25 µM): 64.5 ± 2.9 %; Metabolic activity, mean percentage ± SE (AMO-1 cells [6]; AMO-1, 25 µM): 81.3 ± 6.3 %; inhibition at 100 µM (AMO-1 cells [6]; Homo sapiens, AMO1, AMO-1, 100 µM): > 50%; inhibition at 100 µM (MOLM-13 cells [7]; Homo sapiens, MOLM-13, 100 µM): > 50%; Metabolic activity, mean percentage ± SE (MOLM-13 cells [7]; MOLM-13, 25 µM): 77.8 ± 2.1 %; mean percentage of proliferation ± SE (MOLM-13 cells [8]; MOLM-13, 25 µM): 77.8 ± 9.6%"
